Measurements from the NIST ThermoML archive (doi:10.1021/je0201119).

Assay: xn = mol fraction of the nth substance listed
Conditions: 92 kPa, Liquid; for mass density: Vibrating tube method

CC(C)(N)CO [2-amino-2-methylpropan-1-ol] + O
Conditions	mass density [kg/m3]	viscosity [mPa·s]
298.15 K, x1 = 0.0503	996.94	2.32
298.15 K, x1 = 0.0704	997.22	3.23
298.15 K, x1 = 0.1005	997.05	5.01
298.15 K, x1 = 0.2006	989.06	14.82
298.15 K, x1 = 0.2939	978.77	22.7
298.15 K, x1 = 0.4075	967.43	51.5
298.15 K, x1 = 0.4982	959.61	76.8
298.15 K, x1 = 0.5996	952.01	102.5
298.15 K, x1 = 0.7028	945.34	124.3
298.15 K, x1 = 0.8016	939.53	140.7
298.15 K, x1 = 0.9001	934.8	149.1
303.15 K, x1 = 0.0503	994.7	1.98
303.15 K, x1 = 0.0704	994.6	2.67
303.15 K, x1 = 0.1005	993.88	4.05
303.15 K, x1 = 0.2006	985.15	11.32
303.15 K, x1 = 0.2939	974.76	16.96
303.15 K, x1 = 0.4075	963.43	36.9
303.15 K, x1 = 0.4982	955.61	54.3
303.15 K, x1 = 0.5996	948	70.3
303.15 K, x1 = 0.7028	941.38	84
303.15 K, x1 = 0.8016	935.53	94
303.15 K, x1 = 0.9001	930.7	98.9
313.15 K, x1 = 0.0503	989.66	1.608
313.15 K, x1 = 0.0704	988.95	1.931
313.15 K, x1 = 0.1005	987.5	2.79
313.15 K, x1 = 0.2006	977.24	7
313.15 K, x1 = 0.2939	966.67	12.51
313.15 K, x1 = 0.4075	955.29	20.37
313.15 K, x1 = 0.4982	947.43	28.7
313.15 K, x1 = 0.5996	939.82	36.1
313.15 K, x1 = 0.7028	933.1	42.5
313.15 K, x1 = 0.8016	927.27	46.2
313.15 K, x1 = 0.9001	923.35	47.9
313.15 K, x1 = 1	919.65	47.8
323.15 K, x1 = 0.0503	984.18	1.244
323.15 K, x1 = 0.0704	982.83	1.466
323.15 K, x1 = 0.1005	980.6	2.03
323.15 K, x1 = 0.2006	969.17	4.66
323.15 K, x1 = 0.2939	958.38	7.85
323.15 K, x1 = 0.4075	946.98	12.17
323.15 K, x1 = 0.4982	939.08	16.26
323.15 K, x1 = 0.5996	931.58	20
323.15 K, x1 = 0.7028	924.7	22.7
323.15 K, x1 = 0.8016	918.85	24.6
323.15 K, x1 = 0.9001	914.78	25.3
323.15 K, x1 = 1	911.24	25.1
333.15 K, x1 = 0.0503	978.15	0.931
333.15 K, x1 = 0.0704	976.26	1.154
333.15 K, x1 = 0.1005	973.43	1.55
333.15 K, x1 = 0.2006	960.92	3.27
333.15 K, x1 = 0.2939	949.92	5.23
333.15 K, x1 = 0.4075	938.48	7.63
333.15 K, x1 = 0.4982	930.56	10
333.15 K, x1 = 0.5996	923.08	11.97
333.15 K, x1 = 0.7028	915.97	13.33
333.15 K, x1 = 0.8016	910.36	14.22
333.15 K, x1 = 0.9001	906.31	14.53
333.15 K, x1 = 1	902.87	14.4
343.15 K, x1 = 0.0503	971.66	0.826
343.15 K, x1 = 0.0704	969.29	0.933
343.15 K, x1 = 0.1005	965.83	1.21
343.15 K, x1 = 0.2006	952.44	2.4
343.15 K, x1 = 0.2939	941.28	3.67
343.15 K, x1 = 0.4075	930	4.94
343.15 K, x1 = 0.4982	921.85	6.43
343.15 K, x1 = 0.5996	914.39	7.5
343.15 K, x1 = 0.7028	907	8.23
343.15 K, x1 = 0.8016	901.65	8.88
343.15 K, x1 = 0.9001	897.77	8.98
343.15 K, x1 = 1	894.28	8.91
